Reference: US20050250819A1 (priority 2004, published 2005)

Tests used:
[1] = tested on: Type III-dependent secretion of ExoU by P. aeruginosa PA103; assay: Tertiary assay: Type III-dependent secretion of ExoU by P. aeruginosa PA103; format: cell-based; details: Pseudomonas aeruginosa, ExoU secreted into extracellular medium
Description: Tertiary assay: inhibition of Type III protein secretion of effectors from a Pseudomonas aeruginosa system. Type III protein secretion is used by P. aeruginosa to secrete several essential virulence determinants. One effector of the type III protein secretion system of P. aeruginosa PA103 is the virulence determinants ExoU.
The amount of Type III-dependent secretion of ExoU by P. aeruginosa PA103 can be determined in a cell-based assay by quantification of the 73.9 kDa ExoU protein secreted into the extracellular medium. Such quantitation can be achieved by growing strain PA103 in a deferrated medium in the presence of nitrilotriacetic acid (an inducer of Type III protein secretion in P. aeruginosa) and either in the presence or absence of putative inhibitors. After a prolonged growth period, the cells are sedimented and the supernatants concentrated by ammonium sulfate precipitation. The proteins in the resuspended pellets are separated by electrophoresis on SDS-polyacrylamide gels. After staining gels with Colloidal Blue™, the 73.9 kDa ExoU band is quantitated by scanning through an imager. The effects of inhibitors on the intensity of the ExoU band may be measured relative to that of untreated controls.

[2] = tested on: Type III protein secretion of the chimeric SopE‘-’Bla polypeptide (SPI1 type III protein secretion system); assay: Primary assay: Type III protein secretion of the chimeric SopE'-'Bla polypeptide by Salmonella enterica; format: cell-based; details: read-out: SopE IC50(μM)
Description: Primary assay: Type III protein secretion of the chimeric SopE‘-’Bla polypeptide by Salmonella enterica. This procedure is a cell-based assay that measures the type III-dependent secretion by Salmonella enterica of a plasmid-encoded chimeric polypeptide whose synthesis can be regulated, and which is endowed with an enzymatic activity that can be monitored colorimetrically by hydrolysis of a substrate that is unable to penetrate into the bacterial cytoplasm within the time constraints of the reaction. Thus, the colormetric reaction is not influenced by SopE‘-’Bla polypeptide in the bacterial cytplasm. Instead, it effectively measures the amount of polypeptide that has been secreted from the S. enterica cytoplasm to the extracellular medium via type III system protein secretion.
The SopE‘-’Bla recombinant polypeptide consists of two functionally distinct domains spliced together. The N-terminus domain is encoded by a polynucleotide region specifying the signal for type III secretion of the SopE polypeptide of S. enterica, an effector of the SPI1 type III protein secretion system. The C-terminus domain of SopE‘-’Bla consists of a 263 amino acid peptide sequence that corresponds to the TEM-1 β-lactamase expressed by plasmid pBR322 but without its N-terminal signal sequence. The TEM-1 β-lactamase part of the SopE‘-’Bla chimeric polypeptide is used as a reporter enzyme. It is capable of hydrolyzing nitrocefin resulting in a product whose accumulation can be monitored by colorimetric detection. The secretion of the SopE‘-’Bla chimeric polypeptide from the cytoplasm to the extracellular medium is dependent on type III protein secretion.
For this procedure, cells grown under conditions known to favor a functional SPI1 secretion system are induced for expression of the SopE‘-’Bla protein and grown either in the presence or in the absence of putative inhibitors for determined time. Nitrocefin is then added to the various cultures and its hydrolysis are used for quantitation. An inhibitor of Type III protein secretion is generally a compound that reduces the signal of the enzymatic reaction by decreasing the amount of SopE‘-’Bla secreted into the extracellular medium.

Structure (SMILES) | IC50 [1] | IC50 [2]
O=C(NC(Cc1ccc(Cl)cc1)C(=O)O)/C(=C\c1cccc(C(F)(F)F)c1)NC(=O)c1ccc(-c2ccccc2)cc1 (stereo not shown) [Compound 97] | 13 µM | 
O=C(N[C@H](CSCc1ccccc1)C(=O)O)/C(=C\c1ccc(-c2ccccc2)cc1)NC(=O)c1ccc(C(F)(F)F)cc1 [Compound 6, (S)-3-Benzylsulfanyl-2-[3-biphenyl-4-yl-2-(4-trifluoromethylbenzoylamino)-acryloylamino]propionic acid] | 47 µM | 
O=C(N[C@H](COCc1ccccc1)C(=O)O)/C(=C\c1ccc(OC(F)(F)F)cc1)NC(=O)C1CCN(c2nccc(C(F)(F)F)n2)CC1 [Compound 83, (R)-3-Benzyloxy-2-(3-(4-trifluoromethoxyphenyl)-2-{[1-(4-trifluoromethyl-pyrimidin-2-yl)piperidine-4-carbonyl]amino}acryloylamino)propionic acid] | 84.9 µM | 
O=C(N[C@@H](CSCc1ccccc1)C(=O)O)/C(=C\c1ccc(Oc2ccccc2)cc1)NC(=O)c1ccc(Cl)cc1 [Compound 44, (R)-3-Benzylsulfanyl-2-[2-(4-chlorobenzoylamino)-3-(4-phenoxyphenyl)-acryloylamino]propionic acid] | 26.5 µM | 
O=C(N[C@@H](CSCc1ccccc1)C(=O)O)/C(=C\c1cccc(Oc2ccccc2)c1)NC(=O)c1ccc(I)cc1 [Compound 21, (R)-3-Benzylsulfanyl-2-[2-(4-iodobenzoylamino)-3-(3-phenoxyphenyl)-acryloylamino]propionic acid] | 69 µM | 
O=C(N[C@@H](CSCc1ccccc1)C(=O)O)/C(=C\c1ccc(Cl)cc1Cl)NC(=O)c1ccc(C(F)(F)F)cc1 [Compound 154] | 26.4 µM | 
O=C(N[C@H](Cc1ccc(Cl)cc1)C(=O)O)/C(=C\c1cccc(C(F)(F)F)c1)NC(=O)c1ccc(-c2ccccc2)cc1 [Compound 39, (R)-2-[2-[(Biphenyl-4-carbonyl)amino]-3-(3-trifluoromethylphenyl)acryloylamino]-3-(4-chlorophenyl)propionic acid] | 17 µM | 
O=C(N[C@@H](CSCc1ccccc1)C(=O)O)/C(=C\c1ccc(-c2ccccc2)cc1)NC(=O)c1ccc(C(F)(F)F)cc1 [Compound 121] | 25 µM | 
O=C(N[C@@H](CSCc1ccccc1)C(=O)O)/C(=C\c1ccc(Cl)c(Cl)c1)NC(=O)c1ccc(-c2ccccc2)cc1 [Compound 105] | 33 µM | 
O=C(N[C@@H](CSCc1ccccc1)C(=O)O)/C(=C\c1ccc(Oc2ccccc2)cc1)NC(=O)c1ccc(C(F)(F)F)cc1 [Compound 17, (R)-3-Benzylsulfanyl-2-[3-(4-phenoxyphenyl)-2-(4-trifluoromethylbenzoylamino)-acryloylamino]propionic acid] | 49 µM | 
O=C(N[C@@H](CCSCc1ccccc1)C(=O)O)/C(=C\c1ccc(-c2ccccc2)cc1)NC(=O)c1ccc(C(F)(F)F)cc1 [Compound 7, (S)-4-Benzylsulfanyl-2-[3-biphenyl-4-yl-2-(4-trifluoromethylbenzoylamino)-acryloylamino]butyric acid] | 31 µM | 
O=C(NC(Cc1ccc(Cl)cc1)C(=O)O)/C(=C\c1ccc(-c2ccccc2)cc1)NC(=O)c1ccc(C(F)(F)F)cc1 (stereo not shown) [Compound 55, 2-[3-Biphenyl-4-yl-2-(4-trifluoromethylbenzoylamino)acryloylamino]-3-(4-chloro-phenyl)propionic acid] | 13 µM | 
O=C(NC(COCc1ccccc1)C(=O)O)/C(=C\c1ccc(Cl)c(Cl)c1)NC(=O)c1ccc(-c2ccccc2)cc1 (stereo not shown) [Compound 106] | 20 µM | 
O=C(N[C@@H](CSCc1ccccc1)C(=O)O)/C(=C\c1ccc(OCc2ccccc2)cc1)NC(=O)c1ccc(C(F)(F)F)cc1 [Compound 1, (R)-2-[3-(4-Benzyloxyphenyl)-2-(4-trifluoromethylbenzoylamino)acryloylamino]-3-benzylsulfanylpropionic acid] | 11.6 µM | 
O=C(O)C[C@@H](CNC(=O)/C(=C\c1cccc(C(F)(F)F)c1)NC(=O)c1ccc(-c2ccccc2)cc1)c1ccc(Cl)cc1 [Compound 62, (R)-4-[2-[(Biphenyl-4-carbonyl)amino]-3-(3-trifluoromethylphenyl)acryloylamino]-3-(4-chlorophenyl)butyric acid] | 87.8 µM | 
O=C(NCC1CCCO1)/C(=C\c1ccc(-c2ccccc2)cc1)NC(=O)c1ccc(C(F)(F)F)cc1 (stereo not shown) [Compound 2, N-{2-Biphenyl-4-yl-1-[(tetrahydro-furan-2-yl-methyl)carbamyl]vinyl}-4-trifluoromethylbenzamide] |  | 69 µM
O=C(N[C@@H](Cc1ccc(Cl)cc1)C(=O)O)/C(=C\c1ccc(Oc2ccccc2)cc1)NC(=O)c1ccc(C(F)(F)F)cc1 [Compound 16, (S)-3-(4-Chlorophenyl)-2-[3-(4-phenoxyphenyl)-2-(4-trifluoromethylbenzoylamino)-acryloylamino]propionic acid] |  | 4.9 µM
O=C(N[C@@H](CSCc1ccccc1)C(=O)O)/C(=C\c1ccccc1Cl)NC(=O)c1ccc(C(F)(F)F)cc1 [Compound 151] |  | 50 µM
CN(C(=O)/C(=C\c1cccc(C(F)(F)F)c1)NC(=O)c1ccc(-c2ccccc2)cc1)[C@H](Cc1ccc(Cl)cc1)C(=O)O [Compound 42, (R)-2-{[2-[(Biphenyl-4-carbonyl)amino]-3-(3-trifluoromethylphenyl)acryloyl]-methylamino}-3-(4-chlorophenyl)propionic acid] |  | 15 µM
O=C(NC(Cc1ccc(C(F)(F)F)cc1)C(=O)O)/C(=C\c1cccc(C(F)(F)F)c1)NC(=O)c1ccc(-c2ccccc2)cc1 (stereo not shown) [Compound 72, 2-[2-[(Biphenyl-4-carbonyl)amino)-3-(3-trifluoromethylphenyl)acryloylamino]-3-(4-trifluoromethylphenyl)propionic acid] |  | 12.8 µM
CC(C)(S)C(NC(=O)/C(=C\c1ccc(Cl)c(Cl)c1)NC(=O)c1ccc(-c2ccccc2)cc1)C(=O)O (stereo not shown) [Compound 92] |  | 5 µM
O=C(NC(Cc1ccc(Br)cc1)C(=O)O)/C(=C\c1cccc(C(F)(F)F)c1)NC(=O)c1ccc(-c2ccccc2)cc1 (stereo not shown) [Compound 60, 2-[2-[(Biphenyl-4-carbonyl)amino]-3-(3-trifluoromethylphenyl)acryloylamino]-3-(4-bromophenyl)propionic acid] |  | 9.2 µM
O=C(NC(Cc1ccc(Cl)cc1)C(=O)O)/C(=C\c1ccc(Cl)c(C(F)(F)F)c1)CC(=O)c1ccc(-c2ccccc2)cc1 (stereo not shown) [Compound 5, 2-[2-(2-Biphenyl-4-yl-2-oxoethyl)-3-(4-chloro-3-trifluoromethylphenyl)-acryloylamino]-3-(4-chlorophenyl)propionic acid] |  | 0.8 µM
O=C(O)CCCCNC(=O)/C(=C\c1ccc(-c2ccccc2)cc1)NC(=O)c1ccc(C(F)(F)F)cc1 [Compound 132] |  | 42 µM
O=C(N[C@@H](Cc1ccc(Cl)cc1)C(=O)O)/C(=C\c1ccc(Br)cc1)NC(=O)C1CCN(c2nccc(C(F)(F)F)n2)CC1 [Compound 82, (S)-2-(3-(4-Bromophenyl)-2-{[1-(4-trifluoromethylpyrimidin-2-yl)piperidine-4-carbonyl]amino}acryloylamino)-3-(4-chlorophenyl)propionic acid] |  | 27.8 µM
O=C(NN(Cc1cccc(Oc2ccccc2)c1)C(=O)N[C@@H](COCc1ccccc1)C(=O)O)c1ccc(C(F)(F)F)cc1 [Compound 10, 4-Trifluoromethylbenzoic acid-N′-[(3-phenoxyphenyl)methyl]-N′-[[[(2-benzyloxy)-1-carboxyethyl]amino]carbonyl]hydrazide] |  | 22 µM
O=C(N[C@@H](Cc1ccc(Cl)cc1)C(=O)O)/C(=C\c1ccc(Cl)c(Cl)c1)NC(=O)c1cc2ccccc2s1 [Compound 66, (S)-2-[2-[(Benzo[b]thiophene-2-carbonyl)amino]-3-(3,4-dichlorophenyl)-acryloylamino]-3-(4-chlorophenyl)propionic acid] |  | 19 µM
O=C(N[C@H](Cc1ccc(Cl)cc1)C(=O)O)/C(=C\c1cccc(C(F)(F)F)c1)NC(=O)c1ccc(OC(F)(F)F)cc1 [Compound 36, (R)-3-(4-Chlorophenyl)-2-[2-(4-trifluoromethoxybenzoylamino)-3-(3-trifluoromethylphenyl)acryloylamino]propionic acid] |  | 21.6 µM
